In US20050282743A1, “Molecular interactions in cells” (Arbor Vita Corporation, priority 2001, published 2005) one finds Classification data, which are given here for ten compounds.

What all share (experiment): G' assay (10 uM PL peptide), results of TABLE 7 and TABLE 12
Holding throughout (format): binding

In assay [1] the target is T1, PDZ protein (GST-PDZ fusion) (Homo sapiens, UniProt Q9P202).
T1 construct: made in house; host or cells: E. coli (DH5alpha, BL21 or JM109)
T1 sequence (Q9P202 1-907): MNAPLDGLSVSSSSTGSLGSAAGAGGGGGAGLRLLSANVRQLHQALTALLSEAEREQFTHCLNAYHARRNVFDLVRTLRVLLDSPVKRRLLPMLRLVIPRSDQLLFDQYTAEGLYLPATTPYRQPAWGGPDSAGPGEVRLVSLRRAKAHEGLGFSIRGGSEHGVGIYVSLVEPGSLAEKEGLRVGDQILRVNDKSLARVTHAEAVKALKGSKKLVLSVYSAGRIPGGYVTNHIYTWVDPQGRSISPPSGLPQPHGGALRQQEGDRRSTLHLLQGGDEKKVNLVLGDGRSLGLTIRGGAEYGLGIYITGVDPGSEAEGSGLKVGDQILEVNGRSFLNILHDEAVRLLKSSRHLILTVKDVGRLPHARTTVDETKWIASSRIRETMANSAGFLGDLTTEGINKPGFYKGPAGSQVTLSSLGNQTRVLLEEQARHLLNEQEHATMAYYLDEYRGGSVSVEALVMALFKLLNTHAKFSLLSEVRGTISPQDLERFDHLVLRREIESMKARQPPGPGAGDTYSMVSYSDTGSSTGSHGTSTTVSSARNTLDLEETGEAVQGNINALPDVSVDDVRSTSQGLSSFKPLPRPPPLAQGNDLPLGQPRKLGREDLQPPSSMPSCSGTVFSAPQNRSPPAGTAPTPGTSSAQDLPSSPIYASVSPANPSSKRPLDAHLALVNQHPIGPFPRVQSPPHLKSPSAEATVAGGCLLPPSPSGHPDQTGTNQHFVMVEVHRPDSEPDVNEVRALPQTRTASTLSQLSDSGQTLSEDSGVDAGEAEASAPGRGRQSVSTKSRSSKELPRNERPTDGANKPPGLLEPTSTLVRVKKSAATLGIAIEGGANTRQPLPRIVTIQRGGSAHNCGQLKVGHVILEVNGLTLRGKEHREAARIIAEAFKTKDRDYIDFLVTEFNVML
The following applies: PDZ KIAA1526, PDZ Domain 1. The procedure, abridged: (§1)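 Same steps as the G-zero format, apart from a peptide concentration of 10 uM in place of 20 uM in step 2. Amino-terminally biotinylated PL peptides bind GST-PDZ fusions, and retained peptide is quantified by 450 nm absorbance.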

The target of assay [2] is T2, PDZ protein (GST-PDZ fusion) (Homo sapiens, UniProt Q15700).
T2 construct: made in house; host or cells: E. coli (DH5alpha, BL21 or JM109)
T2 sequence (Q15700 whole entry, the tested form may be a part): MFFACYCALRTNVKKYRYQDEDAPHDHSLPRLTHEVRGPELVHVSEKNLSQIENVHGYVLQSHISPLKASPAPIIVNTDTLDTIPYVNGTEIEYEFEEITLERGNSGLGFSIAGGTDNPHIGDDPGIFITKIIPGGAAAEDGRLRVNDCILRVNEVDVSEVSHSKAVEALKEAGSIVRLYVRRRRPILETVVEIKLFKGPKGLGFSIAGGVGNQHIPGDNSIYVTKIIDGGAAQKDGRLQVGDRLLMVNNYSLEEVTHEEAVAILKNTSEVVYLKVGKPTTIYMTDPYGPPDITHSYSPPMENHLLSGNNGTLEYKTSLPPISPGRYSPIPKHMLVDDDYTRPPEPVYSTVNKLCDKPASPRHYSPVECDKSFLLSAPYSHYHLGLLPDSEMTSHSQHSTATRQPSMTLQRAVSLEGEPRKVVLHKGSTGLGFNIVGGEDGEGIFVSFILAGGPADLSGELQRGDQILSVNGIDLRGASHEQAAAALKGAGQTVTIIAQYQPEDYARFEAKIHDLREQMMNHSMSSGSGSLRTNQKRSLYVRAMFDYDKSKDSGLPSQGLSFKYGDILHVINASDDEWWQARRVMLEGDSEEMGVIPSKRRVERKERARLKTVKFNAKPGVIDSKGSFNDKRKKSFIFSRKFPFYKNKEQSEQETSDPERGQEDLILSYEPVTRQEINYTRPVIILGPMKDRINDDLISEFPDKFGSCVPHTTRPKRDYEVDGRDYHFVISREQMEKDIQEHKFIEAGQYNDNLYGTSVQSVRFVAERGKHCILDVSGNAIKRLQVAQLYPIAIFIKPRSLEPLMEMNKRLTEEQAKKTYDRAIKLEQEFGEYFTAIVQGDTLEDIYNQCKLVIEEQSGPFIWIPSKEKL
The procedure, abridged:
as §1

Assay [3] deals with T3, PDZ protein (GST-PDZ fusion) (Homo sapiens, UniProt Q92796).
T3 construct: made in house; host or cells: E. coli (DH5alpha, BL21 or JM109)
T3 sequence (Q92796 1-817): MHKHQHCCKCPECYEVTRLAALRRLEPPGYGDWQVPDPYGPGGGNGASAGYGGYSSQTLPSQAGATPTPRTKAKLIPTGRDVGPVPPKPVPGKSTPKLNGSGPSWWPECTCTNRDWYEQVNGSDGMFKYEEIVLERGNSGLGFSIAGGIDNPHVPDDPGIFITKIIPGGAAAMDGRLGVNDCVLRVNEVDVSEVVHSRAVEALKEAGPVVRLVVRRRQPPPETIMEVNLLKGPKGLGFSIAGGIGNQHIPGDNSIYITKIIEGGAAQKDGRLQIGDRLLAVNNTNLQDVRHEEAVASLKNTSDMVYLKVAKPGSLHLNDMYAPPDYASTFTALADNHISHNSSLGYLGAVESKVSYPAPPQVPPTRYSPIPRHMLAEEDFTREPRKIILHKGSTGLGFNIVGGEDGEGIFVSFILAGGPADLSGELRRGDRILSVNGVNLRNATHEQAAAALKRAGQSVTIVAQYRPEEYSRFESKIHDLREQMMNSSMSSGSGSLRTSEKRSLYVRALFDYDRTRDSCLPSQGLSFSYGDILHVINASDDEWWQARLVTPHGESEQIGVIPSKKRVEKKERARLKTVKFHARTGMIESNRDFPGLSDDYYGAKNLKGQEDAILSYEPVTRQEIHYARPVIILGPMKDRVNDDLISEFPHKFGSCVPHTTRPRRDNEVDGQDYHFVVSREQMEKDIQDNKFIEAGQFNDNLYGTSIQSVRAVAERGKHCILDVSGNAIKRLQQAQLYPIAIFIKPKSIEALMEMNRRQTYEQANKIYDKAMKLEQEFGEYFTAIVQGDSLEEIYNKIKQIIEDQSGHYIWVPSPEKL
The following applies: PDZ NeDLG. The procedure, abridged:
as §1

The target in assay [4] is T4, PDZ protein (GST-PDZ fusion) (Homo sapiens, UniProt P57105).
T4 construct: made in house; host or cells: E. coli (DH5alpha, BL21 or JM109)
T4 sequence (P57105 1-145): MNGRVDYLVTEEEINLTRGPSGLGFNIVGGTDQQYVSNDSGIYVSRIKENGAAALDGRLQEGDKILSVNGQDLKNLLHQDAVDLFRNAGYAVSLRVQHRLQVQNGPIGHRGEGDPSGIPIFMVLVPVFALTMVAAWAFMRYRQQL
Conditions: PDZ Outer Membrane, PDZ Domain 1. The procedure, abridged: as §1

Ends that are not written are not given here. Peptide text beside a SMILES is read from it. * marks the point of attachment. Biotin = O=C1N[C@H]2[C@H](CS[C@H]2CCCCC(=O)*)N1

On to `CC(C)C[C@H](NC(=O)[C@H](C)NC(=O)[C@@H](NC(=O)[C@@H](NC(=O)[C@H](Cc1c[nH]cn1)NC(=O)[C@H](CC(C)C)NC(=O)CNC(=O)[C@H](CCC(N)=O)NC(=O)CNC(=O)CNC(=O)[C@H](C)NC(=O)[C@H](C)NC(=O)[C@H](CCCNC(=N)N)NC(=O)[C@H](C)NC(=O)[C@H](CO)NC(=O)[C@H](CC(=O)O)NC(=O)[C@H](CC(=O)O)NC(=O)[C@H](Cc1c[nH]c2ccccc12)NC(=O)[C@H](C)NC(=O)CCCC[C@@H]1SC[C@@H]2NC(=O)N[C@@H]21)C(C)C)[C@@H](C)O)C(=O)O` [LPAP] (Biotin-AWDDSARAAGGQGLHVTAL-OH; C-terminus assumed), for which the Classification in assay [1] was 1 (A450 nm 0-1).

In the case of `CC[C@H](C)[C@H](NC(=O)[C@H](CCC(N)=O)NC(=O)CCCC[C@@H]1SC[C@@H]2NC(=O)N[C@@H]21)C(=O)N[C@@H](CO)C(=O)N1CCC[C@H]1C(=O)NCC(=O)NCC(=O)N[C@@H](CC(C)C)C(=O)N[C@@H](CCC(=O)O)C(=O)N1CCC[C@H]1C(=O)N1CCC[C@H]1C(=O)N[C@@H](CO)C(=O)N[C@@H](CCC(=O)O)C(=O)N[C@@H](CCCCN)C(=O)N[C@@H](Cc1c[nH]cn1)C(=O)N[C@@H](Cc1ccccc1)C(=O)N[C@@H](CCCNC(=N)N)C(=O)N[C@@H](CCC(=O)O)C(=O)N[C@H](C(=O)N[C@@H](CCC(=O)O)C(=O)N[C@H](C(=O)O)C(C)C)[C@@H](C)O` [Tax], the Classification in assay [2] (PDZ DLG2, PDZ Domain 1) is on record as 2 (A450 nm 1-2); in assay [2] (PDZ DLG2, PDZ Domain 2) it was 5 (A450 nm of 4 more than 2× repeated); in assay [3] (PDZ Domain 2) it was 5 (A450 nm of 4 more than 2× repeated); in assay [3] (PDZ Domain 3), 5 (A450 nm of 4 more than 2× repeated); in assay [1] it was 3 (A450 nm 2-3); in assay [4], 5 (A450 nm of 4 more than 2× repeated).

For TQGFPGPATWRRISSLESEV, the Classification in assay [2] (PDZ DLG2, PDZ Domain 1) is 4 (A450 nm 3-4); in assay [2] (PDZ DLG2, PDZ Domain 2), 5 (A450 nm of 4 more than 2× repeated); in assay [3] (PDZ Domain 1) it was 2 (A450 nm 1-2); in assay [3] (PDZ Domain 1, 2) it was 5 (A450 nm of 4 more than 2× repeated); in assay [3] (PDZ Domain 2), 5 (A450 nm of 4 more than 2× repeated); in assay [3] (PDZ Domain 3), 1 (A450 nm 0-1). Also, the values for the Classification in assay [1] and in assay [4] were 3 (A450 nm 2-3) and 5 (A450 nm of 4 more than 2× repeated), respectively.

On to `CC[C@H](C)[C@H](NC(=O)[C@H](CCCCN)NC(=O)[C@@H](NC(=O)[C@H](CO)NC(=O)[C@@H]1CCCN1C(=O)[C@H](Cc1ccccc1)NC(=O)[C@@H](NC(=O)[C@@H](NC(=O)[C@H](CCCNC(=N)N)NC(=O)[C@H](CCC(=O)O)NC(=O)[C@H](CC(C)C)NC(=O)[C@H](CC(C)C)NC(=O)[C@H](CC(C)C)NC(=O)[C@@H](NC(=O)CNC(=O)[C@@H](NC(=O)CCCC[C@@H]1SC[C@@H]2NC(=O)N[C@@H]21)C(C)C)[C@@H](C)O)C(C)C)[C@@H](C)CC)C(C)C)C(=O)N[C@@H](C)C(=O)N[C@H](C(=O)N[C@@H](CC(C)C)C(=O)N[C@H](C(=O)O)C(C)C)[C@@H](C)O` [Adenovirus E4 Type9], for which the Classification is 5 (A450 nm of 4 more than 2× repeated) in assay [2] (PDZ DLG2, PDZ Domain 2, Protein Optimal Conc 0.5); 5 (A450 nm of 4 more than 2× repeated) in assay [3] (PDZ Domain 1, 2, PL peptide 10 uM); 1 (A450 nm 0-1) in assay [3] (PDZ Domain 1, PL peptide 10 uM); 5 (A450 nm of 4 more than 2× repeated) in assay [3] (PDZ Domain 2, Protein Optimal Conc 5); 5 (A450 nm of 4 more than 2× repeated) in assay [4] (Protein Optimal Conc 5).

Turning to “LNETTETQRTLLNGDLQTSI (Biotin-LNETTETQRTLLNGDLQTSI) [SSTR2 (somatostatin recepor 2)]”, the Classification in assay [1] was 1 (A450 nm 0-1).

As to `CC(C)C[C@H](NC(=O)[C@H](CC(=O)O)NC(=O)[C@H](CO)NC(=O)[C@H](CCC(=O)O)NC(=O)CNC(=O)[C@H](Cc1ccc(O)cc1)NC(=O)[C@H](CC(C)C)NC(=O)[C@H](C)NC(=O)[C@H](CO)NC(=O)[C@H](CO)NC(=O)[C@H](Cc1ccccc1)NC(=O)[C@H](C)NC(=O)[C@H](C)NC(=O)[C@H](Cc1ccc(O)cc1)NC(=O)[C@H](CC(=O)O)NC(=O)[C@H](CC(C)C)NC(=O)[C@H](C)NC(=O)CNC(=O)[C@@H]1CCCN1C(=O)[C@@H](NC(=O)CCCC[C@@H]1SC[C@@H]2NC(=O)N[C@@H]21)C(C)C)C(=O)O` [a-actinin 2] (Biotin-VPGALDYAAFSSALYGESDL-OH; C-terminus assumed), the Classification in assay [1] and in assay [4] was 1 (A450 nm 0-1) in each case.

Regarding “VHDAESSDEDGYDWGPATDL (Biotin-VHDAESSDEDGYDWGPATDL) [zona occludens 3 (ZO-3)]”, the Classification in assay [1] was 1 (A450 nm 0-1).

Consider “PPATPSPRLALPAHHNATRL (Biotin-PPATPSPRLALPAHHNATRL) [Na+/Pi cotransporter 2]”, for which the Classification in assay [1] and in assay [4] was 1 (A450 nm 0-1) throughout.

“A2AA_HUMAN (modified) (Biotin-HDFRRAFKKILARGDRKRIV; not fully specified)”: in assay [1], the Classification is on record as 4 (A450 nm 3-4).

As for `CC[C@H](C)[C@H](NC(=O)CNC(=O)[C@H](CO)NC(=O)[C@H](Cc1ccccc1)NC(=O)[C@@H](NC(=O)[C@H](CS)NC(=O)CNC(=O)CNC(=O)[C@H](C)NC(=O)[C@@H]1CCCN1C(=O)[C@@H](NC(=O)[C@@H]1CCCN1C(=O)CCCC[C@@H]1SC[C@@H]2NC(=O)N[C@@H]21)[C@@H](C)CC)[C@@H](C)O)C(=O)N[C@@H](Cc1ccccc1)C(=O)N1CCC[C@H]1C(=O)N[C@H](C(=O)N[C@@H](CC(C)C)C(=O)N[C@H](C(=O)N[C@@H](CO)C(=O)N1CCC[C@H]1C(=O)N[C@@H](CC(C)C)C(=O)O)[C@@H](C)O)[C@@H](C)O` [KIA 1481] (Biotin-PIPAGGCTFSGIFPTLTSPL-OH; C-terminus assumed), the Classification in assay [1] was 2 (A450 nm 1-2).
